{"source": "paper PMC10578023", "about": "(Cell Communication and Signaling : CCS, 2023)", "key": {"JAK1 (JH1)": {"biological_target": "JAK1 (JH1) (Homo sapiens, UniProt P23458)", "sequence (P23458 875-1153 limits assumed)": "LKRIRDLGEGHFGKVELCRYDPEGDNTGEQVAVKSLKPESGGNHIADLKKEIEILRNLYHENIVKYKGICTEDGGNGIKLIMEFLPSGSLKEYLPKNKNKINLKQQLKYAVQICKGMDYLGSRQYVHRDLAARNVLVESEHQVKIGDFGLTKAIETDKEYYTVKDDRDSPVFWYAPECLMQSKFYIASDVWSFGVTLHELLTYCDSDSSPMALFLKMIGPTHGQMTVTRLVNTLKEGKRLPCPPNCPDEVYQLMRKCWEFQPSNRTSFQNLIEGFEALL", "experiment": "JH1 kinase assay, HTRF KinEASE-TK", "assay_type": "biochemical", "protocol": "We measured the ability of a compound to bind to JAK1/2/3 and the TYK2 JH1 domain by using HTRF® KinEASE™-TK kits (Millipore, Bedford, MA, USA). […] Next, SA-XL665 and TK antibody-Eu3 were added to the detection buffer and incubated for 1 h at RT. The HTRF signal was measured on a plate reader (Envision)."}, "JAK2/JAK2 [1]": {"system": "JAK2/JAK2", "experiment": "TPO-stimulated pSTAT3/STAT5 in platelets of human whole blood", "assay_type": "cell-based", "protocol": "Stimulation was terminated by adding Lyse/Fix buffer. Staining with BUV786 mouse anti-human CD61 antibody (744384; BD Biosciences) was carried out, followed by washing, permeabilization and staining with PE mouse anti-human STAT3 antibody (651004; BD Biosciences) and APC mouse anti-human STAT5 antibody (562076; BD Biosciences), as described above. The expression of p-STAT3 and STAT5 was quantified by the MFI after the number of CD61-positive platelets was optimized."}, "TYK2/JAK1": {"system": "TYK2/JAK1", "experiment": "IL-23 HEK293 reporter assay", "assay_type": "cell-based, human"}, "[2]": {"system": "IL-12/IL-18-driven IFNγ production", "experiment": "IL-12/IL-18-induced IFNγ release in mice", "assay_type": "in vivo", "protocol": "Healthy female, specific pathogen-free C57BL/6 mice (6–8 weeks) were intraperitoneally (i.p.) injected with IL-12 and IL-18 to drive IFNγ production. Mice were numbered, weighed and divided randomly into seven groups of five according to body weight using Excel™ (Office™; Microsoft, Redmond, WA, USA). One hour after drug administration, IL-12 (0.01 μg/mouse) was i.p. injected. One hour later, recombinant IL-18 (0.1 μg/mouse) was injected. Whole blood was collected 3 h later and centrifuged (300 g, 10 min, 4 °C), and serum was collected. IFNγ expression in serum was determined by a CBA Flex kit (BD Biosciences)."}, "[3]": {"experiment": "Liver microsome metabolic stability", "assay_type": "in vitro ADME", "protocol": "(§1) The ADME properties of QL-1200186 in vitro were measured by the following assays: Caco-2 permeability assay, CYP inhibition assay, protein binding assay, and liver microsome assay. Each assay was performed as previously described."}, "CYP450 2C9": {"biological_target": "CYP450 2C9 (Homo sapiens, UniProt P11712)", "sequence (P11712 whole entry)": "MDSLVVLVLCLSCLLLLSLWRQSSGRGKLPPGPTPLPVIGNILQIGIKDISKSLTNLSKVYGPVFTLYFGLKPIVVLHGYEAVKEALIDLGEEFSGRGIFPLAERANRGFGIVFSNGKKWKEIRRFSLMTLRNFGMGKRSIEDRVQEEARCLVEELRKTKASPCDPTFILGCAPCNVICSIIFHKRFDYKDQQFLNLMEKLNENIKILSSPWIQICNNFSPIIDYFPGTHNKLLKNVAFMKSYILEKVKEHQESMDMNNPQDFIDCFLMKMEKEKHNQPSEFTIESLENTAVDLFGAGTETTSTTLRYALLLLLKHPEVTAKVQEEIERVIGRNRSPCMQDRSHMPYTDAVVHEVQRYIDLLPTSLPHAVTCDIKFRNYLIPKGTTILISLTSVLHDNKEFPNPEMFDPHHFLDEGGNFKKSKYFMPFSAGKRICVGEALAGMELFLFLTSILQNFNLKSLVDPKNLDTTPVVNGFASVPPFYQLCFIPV", "experiment": "CYP inhibition assay", "assay_type": "in vitro ADME", "protocol": "as §1"}, "CYP450 3A4/5": {"system": "CYP450 3A4/5", "experiment": "CYP inhibition assay", "assay_type": "in vitro ADME", "protocol": "as §1"}, "CYP450 2C19": {"biological_target": "CYP450 2C19 (Homo sapiens, UniProt P33261)", "sequence (P33261 whole entry)": "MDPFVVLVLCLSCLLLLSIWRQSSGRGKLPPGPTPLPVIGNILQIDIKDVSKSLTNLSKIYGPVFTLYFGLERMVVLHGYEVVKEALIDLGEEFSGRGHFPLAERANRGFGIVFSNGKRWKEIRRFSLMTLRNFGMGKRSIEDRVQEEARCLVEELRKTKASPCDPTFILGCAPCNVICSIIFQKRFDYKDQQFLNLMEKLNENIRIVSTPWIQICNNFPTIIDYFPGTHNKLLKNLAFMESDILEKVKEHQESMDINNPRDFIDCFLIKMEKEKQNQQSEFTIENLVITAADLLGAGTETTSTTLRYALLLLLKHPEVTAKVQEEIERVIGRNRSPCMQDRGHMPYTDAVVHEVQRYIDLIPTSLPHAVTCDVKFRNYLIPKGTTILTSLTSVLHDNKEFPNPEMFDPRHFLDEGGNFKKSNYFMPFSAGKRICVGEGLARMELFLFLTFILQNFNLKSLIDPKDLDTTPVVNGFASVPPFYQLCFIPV", "experiment": "CYP inhibition assay", "assay_type": "in vitro ADME", "protocol": "as §1"}, "CYP450 2D6": {"biological_target": "CYP450 2D6 (Homo sapiens, UniProt P10635)", "sequence (P10635 whole entry)": "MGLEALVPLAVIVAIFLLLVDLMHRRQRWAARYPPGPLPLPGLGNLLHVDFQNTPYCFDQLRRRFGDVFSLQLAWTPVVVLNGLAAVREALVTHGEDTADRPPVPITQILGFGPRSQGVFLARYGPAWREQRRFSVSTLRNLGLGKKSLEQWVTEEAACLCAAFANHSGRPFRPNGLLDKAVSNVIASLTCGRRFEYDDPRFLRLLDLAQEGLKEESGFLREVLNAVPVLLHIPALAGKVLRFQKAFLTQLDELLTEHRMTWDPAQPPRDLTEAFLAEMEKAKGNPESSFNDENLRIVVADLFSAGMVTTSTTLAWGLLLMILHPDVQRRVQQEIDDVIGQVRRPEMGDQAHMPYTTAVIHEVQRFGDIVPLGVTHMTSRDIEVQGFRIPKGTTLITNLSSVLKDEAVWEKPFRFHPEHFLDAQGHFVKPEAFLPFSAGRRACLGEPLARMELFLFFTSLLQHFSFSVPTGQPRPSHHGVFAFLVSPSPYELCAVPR", "experiment": "CYP inhibition assay", "assay_type": "in vitro ADME", "protocol": "as §1"}, "TYK2": {"biological_target": "T1, TYK2 (Homo sapiens, UniProt P29597)", "T1 construct": "host or cells: Jurkat cells", "T1 sequence (P29597 whole entry)": "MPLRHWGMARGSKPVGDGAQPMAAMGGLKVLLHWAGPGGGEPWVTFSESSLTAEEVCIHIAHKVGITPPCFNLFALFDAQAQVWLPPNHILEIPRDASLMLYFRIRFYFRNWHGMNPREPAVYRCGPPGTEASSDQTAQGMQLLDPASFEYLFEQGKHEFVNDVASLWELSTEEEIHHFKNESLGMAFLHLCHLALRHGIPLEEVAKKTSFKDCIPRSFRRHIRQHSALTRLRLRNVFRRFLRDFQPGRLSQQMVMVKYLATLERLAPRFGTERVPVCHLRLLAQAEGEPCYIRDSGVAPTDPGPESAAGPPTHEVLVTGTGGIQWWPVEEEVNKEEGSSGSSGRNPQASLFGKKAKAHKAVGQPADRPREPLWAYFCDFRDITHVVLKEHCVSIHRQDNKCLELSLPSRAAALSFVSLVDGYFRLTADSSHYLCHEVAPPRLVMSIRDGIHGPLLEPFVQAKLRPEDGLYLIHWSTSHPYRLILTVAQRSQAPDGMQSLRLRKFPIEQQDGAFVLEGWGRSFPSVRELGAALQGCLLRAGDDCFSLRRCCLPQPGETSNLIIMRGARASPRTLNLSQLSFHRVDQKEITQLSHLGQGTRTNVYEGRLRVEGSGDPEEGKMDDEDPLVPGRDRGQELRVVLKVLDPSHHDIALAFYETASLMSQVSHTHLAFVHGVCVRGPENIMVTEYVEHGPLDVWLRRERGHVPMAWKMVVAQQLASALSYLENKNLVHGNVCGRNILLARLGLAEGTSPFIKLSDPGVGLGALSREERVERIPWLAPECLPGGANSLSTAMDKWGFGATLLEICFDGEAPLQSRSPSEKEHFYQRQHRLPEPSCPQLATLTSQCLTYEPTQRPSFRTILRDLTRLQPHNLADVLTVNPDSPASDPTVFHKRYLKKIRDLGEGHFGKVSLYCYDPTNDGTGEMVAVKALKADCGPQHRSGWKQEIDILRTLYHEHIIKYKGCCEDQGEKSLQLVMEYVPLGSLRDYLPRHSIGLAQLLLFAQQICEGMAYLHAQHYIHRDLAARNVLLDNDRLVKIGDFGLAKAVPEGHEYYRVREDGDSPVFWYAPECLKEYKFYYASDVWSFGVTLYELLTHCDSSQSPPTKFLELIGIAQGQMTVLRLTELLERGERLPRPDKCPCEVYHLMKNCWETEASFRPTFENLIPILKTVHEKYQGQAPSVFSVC", "experiment": "IFNα-stimulated TYK2 phosphorylation in Jurkat cells, western blot", "assay_type": "cell-based", "conditions": "IFNα 1000 U/mL", "description": "Then, the phosphorylation of Tyr-1054 and Tyr-1055 in Jurkat cells (Cobioer Biosciences: CBP61444) was detected by western blotting to determine the inhibitory effect of QL-1200186 on TYK2 receptor-mediated activation."}, "JAK3 (JH1)": {"biological_target": "JAK3 (JH1) (Homo sapiens, UniProt P52333)", "sequence (P52333 822-1111 limits assumed)": "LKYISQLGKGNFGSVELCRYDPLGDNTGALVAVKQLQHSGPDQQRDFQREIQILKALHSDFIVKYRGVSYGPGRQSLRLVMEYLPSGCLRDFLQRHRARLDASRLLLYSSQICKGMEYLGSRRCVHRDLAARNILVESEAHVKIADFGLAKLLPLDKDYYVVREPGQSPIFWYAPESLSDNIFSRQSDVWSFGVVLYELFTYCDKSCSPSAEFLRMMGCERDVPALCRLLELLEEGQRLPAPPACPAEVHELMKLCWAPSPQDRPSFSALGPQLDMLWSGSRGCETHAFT", "experiment": "JH1 kinase assay, HTRF KinEASE-TK", "assay_type": "biochemical", "protocol": "(§2) We measured the ability of a compound to bind to JAK1/2/3 and the TYK2 JH1 domain by using HTRF® KinEASE™-TK kits (Millipore, Bedford, MA, USA). JAK1/2/3 and the TYK2 JH1 domain in assay buffer were added to various concentrations of QL-1200186 and incubated for 15 min at RT. Then, the plate was incubated with the biotin-labeled TK substrate and adenosine triphosphate for 45 min at RT. Next, SA-XL665 and TK antibody-Eu3 were added to the detection buffer and incubated for 1 h at RT. The HTRF signal was measured on a plate reader (Envision)."}, "TYK2 JH1 domain": {"biological_target": "T2, TYK2 JH1 domain (Homo sapiens, UniProt P29597)", "T2 construct": "JAK1/2/3 and the TYK2 JH1 domain in assay buffer were added", "T2 sequence (P29597 897-1176 limits assumed)": "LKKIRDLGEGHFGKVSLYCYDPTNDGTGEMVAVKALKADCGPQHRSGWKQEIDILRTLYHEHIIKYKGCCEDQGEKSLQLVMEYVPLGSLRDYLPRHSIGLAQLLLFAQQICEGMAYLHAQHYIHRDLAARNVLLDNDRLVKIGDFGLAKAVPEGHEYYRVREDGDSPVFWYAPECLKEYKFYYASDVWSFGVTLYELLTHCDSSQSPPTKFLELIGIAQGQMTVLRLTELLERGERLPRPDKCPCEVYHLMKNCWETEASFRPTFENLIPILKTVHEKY", "experiment": "JH1 kinase assay, HTRF KinEASE-TK", "assay_type": "biochemical", "protocol": "as §2"}, "JAK2 (JH1)": {"biological_target": "JAK2 (JH1) (Homo sapiens, UniProt O60674)", "sequence (O60674 849-1124 limits assumed)": "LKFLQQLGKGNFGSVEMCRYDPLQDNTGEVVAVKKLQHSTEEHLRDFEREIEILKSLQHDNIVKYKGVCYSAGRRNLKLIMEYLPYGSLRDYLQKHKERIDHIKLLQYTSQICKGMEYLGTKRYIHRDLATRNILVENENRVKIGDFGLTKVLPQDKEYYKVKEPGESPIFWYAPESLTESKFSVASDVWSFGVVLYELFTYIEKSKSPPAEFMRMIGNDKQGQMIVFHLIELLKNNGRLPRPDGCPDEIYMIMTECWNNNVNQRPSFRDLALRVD", "experiment": "JH1 kinase assay, HTRF KinEASE-TK", "assay_type": "biochemical", "protocol": "as §2"}, "JAK2/JAK2 [4]": {"system": "JAK2/JAK2", "experiment": "GM-CSF-stimulated pSTAT5 in U937 cells", "assay_type": "cell-based, human", "protocol": "With respect to GM-CSF-stimulated JAK2 activation in U937 cells (Cobioer Biosciences, CBP60277), after 1 h of treatment with QL-1200186, U937 cells were stimulated with GM-CSF (20 ng/mL; C003; Novoprotein, Suzhou, China) for 15 min.\nThe stimulations stated above were terminated with prewarmed Lyse/Fix Buffer (558,049; BD Biosciences, San Jose, CA, USA) for 10 min. Cells were stained with an anti-cluster of differentiation (CD)3 fluorescein isothiocyanate (FITC) antibody (required for PBMCs but not for the other cell types), washed, and permeabilized on ice using Perm III Buffer (558,050; BD Biosciences) prior to staining with an Alexa Fluor 647 anti-phosphorylated (p)STAT5 (pY694) antibody for 30 min and analyzed by flow cytometry. Phosphorylation of STAT5 was quantified by the median fluorescence intensity (MFI) after gating on the CD3-positive population."}, "[5]": {"system": "imiquimod-induced psoriasis-like skin inflammation", "experiment": "Imiquimod-induced mouse model of psoriasis (PASI)", "assay_type": "in vivo, mice", "protocol": "Healthy male BALB/c mice (18–20 g) were divided randomly into three groups of eight according to body weight using Excel™ (Office™; Microsoft). After 1 week of adaptive feeding, mice received a daily topical dose of 62.5 mg of 5% imiquimod cream ([…]; Aldara®; 3 M Pharmaceuticals, Maplewood, MN, USA) on the shaved back and left ear for 7 consecutive days. Control mice were treated similarly with vehicle cream (Vaseline lanette creme; Fagron, Amsterdam, the Netherlands). Mice in the treatment group were given QL-1200186 (5 mg/kg or 1 mg/kg) orally twice a day (p.o., b.i.d.).\nThe Psoriasis Area and Severity Index (PASI) consists of erythema, scaling and skin thickness measurements. Mice were evaluated from day 1 when imiquimod was given for 7 consecutive days. The thickness of the mouse skin was measured using a micrometer. The PK parameters were also measured."}}, "note": "pIC50: −log10 of the molar value.", "data": [{"smiles": "CNC(=O)c1cnc2cc1Nc1cc(cc(-c3ccn(C)n3)c1OC)CCOCc1cccc(n1)N2", "note": "[QL-1200186, 5^6-methoxy-N-methyl-5^5-(1-methyl-1H-pyrazol-3-yl)-8-oxa-2,4-diaza-1(2,6),3(2,4)-dipyridina-5(1,3)-benzenacyclononaphane-3^5-carboxamide]", "values": [{"measurement": "pIC50", "setting": "JAK1 (JH1)", "value": "< 5.00"}, {"measurement": "Kinase assay (JH1) JAK1 IC50", "setting": "JAK1 (JH1)", "value": "did not show inhibitory activity"}, {"measurement": "TPO-pSTAT3/STAT5 in human whole blood (JAK2/JAK2) inhibition", "setting": "JAK2/JAK2 [1]; @10μM", "value": "no inhibition @10μM"}, {"measurement": "activity in thrombopoietin (TPO)-induced JAK2/JAK2 signaling", "setting": "JAK2/JAK2 [1]; human whole blood", "value": "no activity"}, {"measurement": "pIC50", "setting": "TYK2/JAK1", "value": 9.34}, {"measurement": "inhibition of serum IFNγ production", "setting": "[2]; oral 10 mg/kg", "value": 97.8, "unit": "%"}, {"measurement": "inhibition of serum IFNγ production", "setting": "[2]; oral, 0.1 mg/kg", "value": 77.1, "unit": "%"}, {"measurement": "inhibition of serum IFNγ production", "setting": "[2]; oral, 1 mg/kg", "value": 86.9, "unit": "%"}, {"measurement": "Metabolic Stability L.M. T1/2", "setting": "[3]; Dog", "value": 1.42, "unit": "h"}, {"measurement": "Metabolic Stability L.M. T1/2", "setting": "[3]; Human", "value": "> 3.107", "unit": "h"}, {"measurement": "Metabolic Stability L.M. T1/2", "setting": "[3]; Monkey", "value": 1.2, "unit": "h"}, {"measurement": "Metabolic Stability L.M. T1/2", "setting": "[3]; Mouse", "value": 1.28, "unit": "h"}, {"measurement": "Metabolic Stability L.M. T1/2", "setting": "[3]; Rat", "value": 1.823, "unit": "h"}, {"measurement": "pIC50", "setting": "CYP450 2C9", "value": 5.19}, {"measurement": "pIC50", "setting": "CYP450 3A4/5", "value": "< 4.30"}, {"measurement": "pIC50", "setting": "CYP450 2C19", "value": 5.54}, {"measurement": "pIC50", "setting": "CYP450 2D6", "value": "< 4.30"}, {"measurement": "IFNα-stimulated phosphorylation of TYK2 in Jurkat cells", "setting": "TYK2", "value": "blocked IFNα-stimulated phosphorylation of TYK2 in Jurkat cells in a concentration-dependent manner"}, {"measurement": "pIC50", "setting": "JAK3 (JH1)", "value": "< 5.00"}, {"measurement": "Kinase assay (JH1) JAK3 IC50", "setting": "JAK3 (JH1)", "value": "did not show inhibitory activity"}, {"measurement": "pIC50", "setting": "TYK2 JH1 domain", "value": "< 5.00"}, {"measurement": "Kinase assay (JH1) TYK2 IC50", "setting": "TYK2 JH1 domain", "value": "did not show inhibitory activity"}, {"measurement": "pIC50", "setting": "JAK2 (JH1)", "value": "< 5.00"}, {"measurement": "Kinase assay (JH1) JAK2 IC50", "setting": "JAK2 (JH1)", "value": "did not show inhibitory activity"}, {"measurement": "GM-CSF-pSTAT5 in U937 (JAK2/JAK2) inhibition", "setting": "JAK2/JAK2 [4]; @10μM", "value": "no inhibition @10μM"}, {"measurement": "pIC50", "setting": "JAK2/JAK2 [4]; JAK2/JAK2-dependent, read-out: GM-CSF-stimulated STAT5 phosphorylation IC50", "value": "< 5.00"}, {"measurement": "psoriasis severity according to the thickness score", "setting": "[5]; day 7", "value": "significantly alleviated psoriasis severity"}, {"measurement": "psoriasis-like inflammatory symptoms (erythema, scaling, thickening; PASI)", "setting": "[5]; vs imiquimod group, p.o., b.i.d., n = 8", "value": "significantly improved psoriasis-like inflammatory symptoms"}]}]}
